Experimental data from patent US20050208058A1, “Compositions and methods for modulating cell division” (priority 2003, published 2005).
d = 2'-deoxy (DNA)

How the values were obtained:
Type in all cases: cell-based, human
RPE cells [1] = test: FACS of cells treated in tandem with two siRNAs (p53 dependence); settings: tandem treatment sip53 then siGCP2; FIG. 6A
Description: For flow cytometry (i.e., fluorescence-activated cell sorter or FACS) experiments, siRNAs were delivered to cells as described above, and were incubated for 50-70 hours. To synchronize cells, nocodazole was added to the cells to a concentration of 5 μg/mL for 12 hours. Cells were stained with propidium iodide and analyzed by flow cytometry (FACSCAN; Becton Dickinson) using FLOJO® software (Tree Star, Inc., Ashland, Oreg.).
(§1) A number of experiments were conducted to determine if p53 is required for the cell cycle arrest phenotype described herein. FACS analysis of tandem siRNA-treated cells was performed as described in Example 2. BrDU and DAPI imaging was performed as described in Example 2. Intracellular p53 was visualized using anti-p53 antibody that is specific for activated p53 (i.e., p53 phosphorylated at Serine 33) (“α-Pser33-p53” provided by Yoichi Taya and described in Kishis et al., J. Biol. Chem., 276:39115-3922, 2001)
In FIG. 6A each line tracing represents FACS data from cells treated in tandem with the siRNAs directed to the gene products indicated above the line. Cells were first treated with siRNA directed to the gene product to the left of the slash. Up to 24 hours later, siRNA directed to the gene product to the right of the slash was added. […] 12 hours before collecting the cells, nocodazole was added to the cells analyzed in the bottom three line tracings. […]

RPE cells [2] = test: BrDU staining of cells treated in tandem with two siRNAs (p53 dependence); settings: FIG. 6B
Description: (§2) To further study the effects of silencing centrosomal genes, the following cell cycle experiments were performed using RPE cells. In immunofluorescence experiments, cells were delivered by OLIGOFECTAMINE in a media solution containing between 1-100 nanomolar concentration of siRNAs. After 4 hours of incubation with lipofectamine, cells were washed, and cell cycle progression was assayed by (i) treating cells with 5-Bromo-2′-deoxyuridine (BrDU from Sigma, St Louis, Mo.) for 24 hours and staining for BrDU or (ii) staining cells with antibody to Ki-67 (BD Biosciences) according to manufacturer's instructions. BrDU treatment and staining were performed as follows: after 50-70 hours incubation with siRNA, BrDU was added to cells at a final concentration of 5 μg/ml. Cells were fixed in −20° C. methanol and then treated with 2N HCL at 22° C. for 30 minutes, incubated with 1:500 mouse anti-BrdU antibody (Becton Dickinson, Palo Alto, Calif.), and labeled with 1:1,000 goat FITC-mouse antibody (Molecular Probes, Inc.). Cells were also treated with 4′,6-diamidino-2-phenylindole (DAPI) (Molecular Probes) according to the manufacturer's instructions. Cells were prepared, imaged, and the resulting images were deconvolved as described in Example 1.
as §1

p53 = test: Western blot of p53 in cytoplasmic and nuclear fractions; settings: relative to mock or silamin transfected cells; FIG. 6D
Description: The Western blot shown cytoplasmic (cyt), and nuclear (nuc) cell fractions blotted with an antibody to p53 (from Callbiochem, San Diego, Calif.). Nuclear fractions were blotted with an antibody for H1 as a control for loading.

RPE cells [3] = test: BrDU incorporation after siRNA treatment and nocodazole synchronization; settings: relative to control cells (siRNA to lamin), after nocodazole release; FIG. 2A
Description: as §2
Upon release from nocodazole treatment, proliferating cells typically resume cell cycle progression. Chromosomal DNA in the cells was imaged using DAPI (faint ghost-like staining) and/or BrDU (brighter staining). Although DAPI can be used to visualize DNA at any stage of the cell cycle, BrDU is only incorporated into newly synthesized DNA only during S-phase. Thus, BrDU incorporation can be used as a marker of cells that progress through at least one S-phase of the cell cycle. Control cells in this experiment were treated with siRNA to lamin.

CDK2 = CDK2 kinase assay from siRNA-treated cells; settings: after sustained siRNA treatment, vs siRNA to laminin; FIG. 2C
Description: Kinase assays were done on RPE cells treated with siRNAs as described above. Treated cells were lysed in 1% NP-40 lysis buffer (NP-40 buffer: 20 mM NaPO4 pH 7.4, 1% NP-40, 250 mM NaCl, 5 mM ethylenediaminetetraacetic acid (EDTA), 5 mM dithiothreitol (DTT), 1 mM phenylmethylsulfonyl fluoride, 2 μg/ml leupeptin, and 1.5 μg/ml aprotinin) supplemented with 25 mM-glycerophosphate. For measurement of CDK2-associated activity in vitro, the complexes were immunoprecipitated for 2 hours at 4° C. using anti-cylin A antibody (Santa Cruz Biotechnology). Immunocomplexes were bound to protein A-Sepharose beads for an additional hour at 4° C. and washed four times with lysis buffer followed by one wash with the kinase buffer (20 mM Tris-HCl pH 7.5, 50 mM KCl, 7.5 mM MgCl 2, 1 mM DTT, 25 mM-glycerophosphate, 1 mM phenylmethylsulfonyl fluoride, 2 μg/ml leupeptin, and 1.5 μg/ml aprotinin). […] Phosphorylated proteins were analyzed on 10% SDS-polyacrylamide gels followed by autoradiography and quantified by phosphorimaging (Molecular Imager GS-250; Bio-Rad, Hercules, Calif.).
FIG. 2C is a graph quantifying the results of CDK2 kinase assays from cells treated with siRNA directed to laminin or pericentrin B. CDK2 activity is required for proliferating cells through to progress through the G1 stage of the cell cycle.

Sequence | effect of pre-treatment on siGCP2-mediated block of the nocodazole shift (RPE cells [1]) | effect of pretreatment on number of cells that divided after sipericentrin or siGCP2 (RPE cells [2]; sip53 pretreatment, 6C) | nuclear p53 (Western blot) (p53) | incorporation of BrDU into chromosomal material (RPE cells [3]) | CDK2 expression and/or activity (CDK2) | cells incorporating BrDU (RPE cells [2]; tandem treatment silaminin then indicated siRNA, vs silamin/silamin)
GGACAAGGGUUGGGCUGGG (siRNA; RNA, 3' dTdT, backbone not given here) [sip53, siRNA directed to p53, reference compound] | inhibited the siGCP-mediated block of the nocodazole shift | increased the number of cells that divided | nuclear p53 is activated | – | – | –
UUGGAACAGCUGCAGCAGA (siRNA; RNA, 3' dTdT, backbone not given here) [pericentrin B, siRNA directed only to pericentrin B (Kendrin)] | – | – | – | clearly inhibited incorporation of BrDU | greatly diminished | substantially fewer
